Assay results from US20070190039A1, “Novel cell lines, and methods of preparation and use thereof” (priority 2003, published 2007).

Tested on: voltage-gated calcium current in HN2A12 cells
Type: cell-based, murine

Compound	block of the calcium current (N-type part)	inhibition of the voltage-gated calcium current
ω-conotoxin-GVIA	about 38%	–
[Cl][Cd][Cl] [CdCl2]	–	completely inhibited
